The target of data set [1] is EGFR (T790M) (h) (Homo sapiens (Human), UniProt P00533, T790M). Description: Kinase assay, single dose inhibition (Millipore, 33P-ATP filter binding). In kind it is biochemical. The settings on record: 0.1 μM test compound, 10 μM ATP; remaining activity relative to DMSO control = 100%.
Method: Assay conditions included 10 μM ATP and 100 nM test compounds.
All reactions are initiated by the addition of the MgATP mix. After incubation for 40 minutes at room temperature, the reaction is stopped by the addition of 3% phosphoric acid solution. 10 μL of the reaction is then spotted onto a P30 filtermat and washed three times for 5 minutes in 75 mM phosphoric acid and once in methanol prior to drying and scintillation counting. This assay is performed by Millipore. The experiment is carried out in duplicate. The value for the control sample (DMSO) was set to 100%, and the values for the compound-treated samples were expressed as activity relative to the control sample.
Data set [2] deals with HCC827 (EGFR Del) NSCLC cells. Description: Cell proliferation assay (MTS cell viability). In kind it is cell-based. The following applies: Homo sapiens; for pIC50: 72 h, HCC827 cells, 3 days of exposure, MTS; for GI50: HCC827, one set of studies, read-out: GI50, proliferation of HCC827 cells expressing EGFR Del.
Method: (§1) Effects of test compounds on in vitro proliferation were measured by MTS cell viability assay.
(§2) Prepare test compounds in each well with a final medium volume of 200 μl;
Incubate for 3 days of exposure;
(§3) Prepare reagents following the instructions in the Cell Proliferation Assay kit (Promega);
(§4) Change to serum-free medium with a final volume of 100 l/well. Prepare a set of wells with medium only for background subtraction;
(§5) Add 20 μl MTS solution containing PMS to each well (final concentration of MTS will be 0.33 mg/ml);
(§6) Incubate 1 to 4 hours at 37° C. in a humidified, 5% CO2 atmosphere.
(§7) Record absorbance at 490 nm using VICTOR™ X5 plate reader (PerkinElmer).
(§8) All experimental points were set up in three wells and all experiments were repeated at least three times.
Data set [3] concerns activated and resistant T790M forms of EGFR; EGFR WT. Description: In vitro cellular assays, statements across cell lines. In kind it is cell-based. The settings on record: result in words.
Method: as §1
Data set [4] addresses EGFR (ErbB1) (Homo sapiens (Human), UniProt P00533). Description: Kinase assay (IC50), fluorescence peptide assay. In kind it is biochemical. The following applies: EGFR WT; 10 pt curve, 10 μM top concentration, Km ATP.
Method: (§9) 2.5 μL—4× Test Compound or 100 nL 100× plus 2.4 μL kinase buffer;
5 μL—2× Peptide/Kinase Mixture;
5 μL—Development Reagent Solution;
(§10) 60-minute Development Reaction incubation at room temperature;
(§11) Read on fluorescence plate reader and analyze the data.
The subject of data set [5] is A549 (EGFR WT) NSCLC cells. As to the kind of experiment: Cell proliferation assay (MTS cell viability). In kind it is cell-based. The following applies: Homo sapiens; for pIC50: 72 h, A549 cells, 3 days of exposure, MTS; for GI50: A549.
Method: as §1
A549 cells were maintained in Ham's F12K medium (Gibco) supplemented with 10% FBS, 100 units/mL penicillin, 100 units/mL streptomycin, and 2 mM glutamine.
as §2
Incubate for 3 days of exposure;
as §3, §4, §5, §6, §7, §8
The target of data set [6] is EGFR (T790M, L858R) (h) (Homo sapiens (Human), UniProt P00533, L858R/T790M). As to the kind of experiment: Kinase assay, single dose inhibition (Millipore, 33P-ATP filter binding). In kind it is biochemical. The settings on record: 0.1 μM test compound, 10 μM ATP; remaining activity relative to DMSO control = 100%.
Data set [7] has as its target EGFR (ErbB1) T790M (Homo sapiens (Human), UniProt P00533, T790M). Description: Kinase assay (IC50), fluorescence peptide assay. The settings on record: 10 pt curve, 1 μM top concentration, Km ATP. In kind it is biochemical.
Method: as §9
5 μL—2× Peptide/Kinase Mixture;
5 μL—Development Reagent Solution;
as §10, §11
In data set [8] the target is EGFR (L858R) (h) (Homo sapiens (Human), UniProt P00533, L858R). Description: Kinase assay, single dose inhibition (Millipore, 33P-ATP filter binding). In kind it is biochemical. The following applies: 0.1 μM test compound, 10 μM ATP; remaining activity relative to DMSO control = 100%.
Data set [9] deals with EGFR (h) (Homo sapiens (Human), UniProt P00533). The data set is described as above. In kind it is biochemical. The settings on record: 0.1 μM test compound, 10 μM ATP; remaining activity relative to DMSO control = 100%.
Data set [10] concerns H1975 (EGFR L858R/T790M) NSCLC cells. Description: Cell proliferation assay (MTS cell viability). In kind it is cell-based. The settings on record: Homo sapiens; for pIC50: NCI-H1975, 72 h, H1975 cells, 3 days of exposure, MTS; for GI50: NCI-H1975, one set of studies, read-out: GI50, proliferation of H1975 cells expressing EGFR-L858R/T790M.
Data set [11] addresses ALK (h) (Homo sapiens (Human), UniProt Q9UM73). Description: Kinase assay, single dose inhibition (Millipore, 33P-ATP filter binding). In kind it is biochemical. The settings on record: 0.1 μM test compound, 10 μM ATP; remaining activity relative to DMSO control = 100%.
Data set [12] concerns the target EGFR (ErbB1) L858R (Homo sapiens (Human), UniProt P00533, L858R). Description: Kinase assay (IC50), fluorescence peptide assay. The settings on record: read-out: IC50 EGFR (ErbB1) L858R; 10 pt curve, 1 μM top concentration, Km ATP.
Data set [13] deals with A431 (EGFR WT) cells. As to the kind of experiment: Cell proliferation assay (MTS cell viability). In kind it is cell-based. The following applies: Homo sapiens, A-431, 72 h, 3 days of exposure.
Method: as §1
A431 cells were maintained in DMEM (Gibco) supplemented with 10% FBS, 100 units/mL penicillin, 100 units/mL streptomycin, and 2 mM glutamine.
as §2
Incubate for 3 days of exposure;
as §3, §4, §5, §6, §7, §8
In data set [14] the target is EGFR (ErbB1) T790M L858R (Homo sapiens (Human), UniProt P00533, L858R/T790M).
EGFR (ErbB1) T790M L858R, sequence (P00533 25-1210 T790M/L858R): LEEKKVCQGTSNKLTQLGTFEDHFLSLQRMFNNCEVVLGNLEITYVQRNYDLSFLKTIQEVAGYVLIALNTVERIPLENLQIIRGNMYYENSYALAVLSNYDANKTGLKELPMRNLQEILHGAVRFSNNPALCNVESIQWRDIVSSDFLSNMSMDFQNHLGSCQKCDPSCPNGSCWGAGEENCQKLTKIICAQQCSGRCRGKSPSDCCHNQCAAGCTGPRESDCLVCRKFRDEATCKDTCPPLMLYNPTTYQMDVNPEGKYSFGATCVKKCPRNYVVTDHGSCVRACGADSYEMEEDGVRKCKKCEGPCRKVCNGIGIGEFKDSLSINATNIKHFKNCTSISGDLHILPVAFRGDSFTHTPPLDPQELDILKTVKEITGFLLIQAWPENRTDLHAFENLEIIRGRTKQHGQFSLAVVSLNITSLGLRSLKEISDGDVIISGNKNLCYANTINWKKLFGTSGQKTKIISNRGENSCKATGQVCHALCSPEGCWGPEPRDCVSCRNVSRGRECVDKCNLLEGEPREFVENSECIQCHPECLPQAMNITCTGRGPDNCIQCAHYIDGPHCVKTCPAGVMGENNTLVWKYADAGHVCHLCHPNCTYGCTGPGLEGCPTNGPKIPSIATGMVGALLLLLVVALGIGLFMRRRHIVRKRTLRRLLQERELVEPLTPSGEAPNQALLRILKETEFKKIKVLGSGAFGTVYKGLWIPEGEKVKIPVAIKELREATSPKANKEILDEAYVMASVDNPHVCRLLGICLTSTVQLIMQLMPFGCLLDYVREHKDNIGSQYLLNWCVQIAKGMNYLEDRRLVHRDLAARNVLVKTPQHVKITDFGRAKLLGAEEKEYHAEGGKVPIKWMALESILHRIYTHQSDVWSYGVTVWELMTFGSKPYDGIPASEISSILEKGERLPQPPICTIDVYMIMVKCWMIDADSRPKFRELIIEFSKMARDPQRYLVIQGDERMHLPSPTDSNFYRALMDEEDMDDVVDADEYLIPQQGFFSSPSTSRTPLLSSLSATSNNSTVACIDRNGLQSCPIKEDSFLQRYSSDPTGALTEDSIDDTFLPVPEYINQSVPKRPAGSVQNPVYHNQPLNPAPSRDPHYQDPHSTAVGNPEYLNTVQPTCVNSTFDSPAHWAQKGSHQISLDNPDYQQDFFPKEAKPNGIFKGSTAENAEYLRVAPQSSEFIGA
Method: as §9
5 μL—2× Peptide/Kinase Mixture;
5 μL—Development Reagent Solution;
as §10, §11
Data set [15] has as its target ALK (Homo sapiens (Human), UniProt Q9UM73). As to the kind of experiment: Kinase assay (IC50), fluorescence peptide assay. In kind it is biochemical. The following applies: 10 pt curve, 1 μM top concentration, Km ATP.
Method: as §9
5 μL—2× Peptide/Kinase Mixture;
5 μL—Development Reagent Solution;
as §10, §11
The subject of data set [16] is Ba/F3 cells harboring EGFR T790M in conjunction with different exon 19 deletion mutations. The settings on record: read-out: IC50 required to inhibit the growth of Ba/F3 cells harboring EGFR T790M; cited from earlier work.
For data set [17] the following is noted: Phase I trial; cited from earlier work.
Data set [18] relates to patients with EGFR mutations. The settings on record: six prospective trials; cited from earlier work.
In data set [19] the test system is lung cancer patients. The settings on record: all lung cancer patients, not selected for EGFR mutation; cited from earlier work.
Setting [20] is: read-out: IC50 EGFR (ErbB1) T790M L858R, 10 pt curve, 1 μM top concentration, Km ATP.

Structures are written as SMILES. pIC50: −log10 of the molar value. Where two headings read alike, the source gives them in different places. Where only a bound is given, the exact number is not on record here.

EGFR (ErbB1) L858R, sequence (P00533 25-1210 L858R): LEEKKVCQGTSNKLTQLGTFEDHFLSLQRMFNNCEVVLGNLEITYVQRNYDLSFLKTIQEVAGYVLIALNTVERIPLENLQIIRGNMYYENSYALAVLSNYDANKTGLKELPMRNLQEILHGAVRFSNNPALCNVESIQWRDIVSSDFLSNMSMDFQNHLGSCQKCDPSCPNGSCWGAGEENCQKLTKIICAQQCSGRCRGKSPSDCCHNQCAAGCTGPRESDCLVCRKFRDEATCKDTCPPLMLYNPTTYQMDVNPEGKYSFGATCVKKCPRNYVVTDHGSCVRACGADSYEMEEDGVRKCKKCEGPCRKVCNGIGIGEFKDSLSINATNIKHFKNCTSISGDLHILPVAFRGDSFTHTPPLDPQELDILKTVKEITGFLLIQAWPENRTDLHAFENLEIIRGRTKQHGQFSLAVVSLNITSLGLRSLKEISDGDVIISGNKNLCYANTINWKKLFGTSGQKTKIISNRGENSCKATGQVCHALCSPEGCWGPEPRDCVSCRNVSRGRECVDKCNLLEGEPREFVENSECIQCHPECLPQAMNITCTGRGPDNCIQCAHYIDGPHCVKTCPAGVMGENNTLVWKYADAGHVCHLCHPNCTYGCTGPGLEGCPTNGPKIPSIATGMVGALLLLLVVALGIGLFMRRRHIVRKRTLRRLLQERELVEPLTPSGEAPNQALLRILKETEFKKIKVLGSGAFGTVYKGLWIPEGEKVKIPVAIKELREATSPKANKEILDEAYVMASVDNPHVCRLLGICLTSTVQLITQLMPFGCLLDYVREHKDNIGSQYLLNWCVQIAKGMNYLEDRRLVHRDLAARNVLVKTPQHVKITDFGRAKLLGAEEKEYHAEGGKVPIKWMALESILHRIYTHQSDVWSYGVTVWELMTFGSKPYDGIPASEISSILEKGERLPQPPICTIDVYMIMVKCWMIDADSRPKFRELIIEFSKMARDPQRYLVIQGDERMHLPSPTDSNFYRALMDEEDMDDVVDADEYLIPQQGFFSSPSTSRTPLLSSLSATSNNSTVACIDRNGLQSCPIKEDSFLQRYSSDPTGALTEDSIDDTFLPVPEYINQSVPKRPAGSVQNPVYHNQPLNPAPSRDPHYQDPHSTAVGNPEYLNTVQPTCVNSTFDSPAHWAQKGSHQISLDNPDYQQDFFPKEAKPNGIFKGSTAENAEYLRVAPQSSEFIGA
EGFR (ErbB1), sequence (P00533 25-1210): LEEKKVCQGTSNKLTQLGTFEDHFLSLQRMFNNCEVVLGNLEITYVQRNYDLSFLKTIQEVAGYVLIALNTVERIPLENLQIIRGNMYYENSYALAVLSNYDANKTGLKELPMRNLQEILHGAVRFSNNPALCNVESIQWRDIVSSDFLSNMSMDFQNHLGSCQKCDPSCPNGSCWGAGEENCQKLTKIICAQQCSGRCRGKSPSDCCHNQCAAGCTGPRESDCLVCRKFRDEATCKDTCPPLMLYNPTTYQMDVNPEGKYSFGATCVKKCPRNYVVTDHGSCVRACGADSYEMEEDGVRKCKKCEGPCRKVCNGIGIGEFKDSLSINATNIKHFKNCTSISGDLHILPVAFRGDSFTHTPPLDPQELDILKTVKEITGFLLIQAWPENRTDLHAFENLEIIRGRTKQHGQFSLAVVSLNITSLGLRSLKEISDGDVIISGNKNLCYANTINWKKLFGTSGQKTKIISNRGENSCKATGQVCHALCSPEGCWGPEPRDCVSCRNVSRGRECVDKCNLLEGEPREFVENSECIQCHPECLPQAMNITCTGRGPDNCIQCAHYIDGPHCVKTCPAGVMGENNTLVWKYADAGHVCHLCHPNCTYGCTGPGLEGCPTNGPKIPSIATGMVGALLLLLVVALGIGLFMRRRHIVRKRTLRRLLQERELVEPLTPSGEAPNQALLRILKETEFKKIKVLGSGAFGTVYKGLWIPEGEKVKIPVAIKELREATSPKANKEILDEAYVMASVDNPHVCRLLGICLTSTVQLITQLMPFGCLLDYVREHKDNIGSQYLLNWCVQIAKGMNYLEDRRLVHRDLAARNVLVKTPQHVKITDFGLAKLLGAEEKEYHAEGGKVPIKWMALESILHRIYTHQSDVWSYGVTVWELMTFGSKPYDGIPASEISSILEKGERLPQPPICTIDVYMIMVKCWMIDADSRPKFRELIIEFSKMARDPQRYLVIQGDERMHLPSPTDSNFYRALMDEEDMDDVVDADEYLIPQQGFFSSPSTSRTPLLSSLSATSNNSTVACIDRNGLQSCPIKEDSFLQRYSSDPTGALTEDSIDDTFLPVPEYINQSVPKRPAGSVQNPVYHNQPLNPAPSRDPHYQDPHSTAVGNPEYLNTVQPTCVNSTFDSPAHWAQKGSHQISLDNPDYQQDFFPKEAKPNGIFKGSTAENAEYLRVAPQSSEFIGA
EGFR (ErbB1) T790M, sequence (P00533 25-1210 T790M): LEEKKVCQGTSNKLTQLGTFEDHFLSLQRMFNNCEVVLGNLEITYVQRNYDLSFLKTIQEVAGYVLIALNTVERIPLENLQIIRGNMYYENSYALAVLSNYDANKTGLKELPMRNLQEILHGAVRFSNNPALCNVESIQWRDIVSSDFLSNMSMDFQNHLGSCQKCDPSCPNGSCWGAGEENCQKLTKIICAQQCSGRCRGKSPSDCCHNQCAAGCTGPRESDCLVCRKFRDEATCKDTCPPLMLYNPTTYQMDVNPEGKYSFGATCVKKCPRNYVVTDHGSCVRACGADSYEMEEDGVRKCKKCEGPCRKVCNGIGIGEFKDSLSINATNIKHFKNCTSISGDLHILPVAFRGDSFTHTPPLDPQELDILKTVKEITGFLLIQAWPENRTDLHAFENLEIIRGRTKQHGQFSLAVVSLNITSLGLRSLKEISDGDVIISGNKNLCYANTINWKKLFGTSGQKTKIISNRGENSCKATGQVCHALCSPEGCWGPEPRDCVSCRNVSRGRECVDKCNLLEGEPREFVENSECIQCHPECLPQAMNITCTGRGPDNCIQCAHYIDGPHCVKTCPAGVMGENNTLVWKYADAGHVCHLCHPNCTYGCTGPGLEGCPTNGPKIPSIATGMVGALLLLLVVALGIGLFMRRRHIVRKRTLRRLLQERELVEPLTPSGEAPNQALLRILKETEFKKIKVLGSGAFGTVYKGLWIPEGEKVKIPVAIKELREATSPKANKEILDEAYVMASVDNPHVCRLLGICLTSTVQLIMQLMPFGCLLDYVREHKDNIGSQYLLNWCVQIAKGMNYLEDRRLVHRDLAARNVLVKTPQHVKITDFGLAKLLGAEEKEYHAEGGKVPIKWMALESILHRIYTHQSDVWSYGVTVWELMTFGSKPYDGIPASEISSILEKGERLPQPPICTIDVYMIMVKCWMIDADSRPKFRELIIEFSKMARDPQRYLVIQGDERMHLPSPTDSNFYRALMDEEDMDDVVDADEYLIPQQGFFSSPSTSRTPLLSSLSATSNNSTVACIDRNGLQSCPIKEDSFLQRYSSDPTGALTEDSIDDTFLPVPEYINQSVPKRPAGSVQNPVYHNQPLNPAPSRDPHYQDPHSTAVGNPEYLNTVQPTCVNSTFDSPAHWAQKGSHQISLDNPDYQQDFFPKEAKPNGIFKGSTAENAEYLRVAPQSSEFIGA

Regarding `C=CC(=O)Nc1ccc(OC)c(Nc2ncc(Cl)c(Nc3ccccc3C(=O)C(=O)N(C)C)n2)c1` [Example 67, N-(3-(5-chloro-4-(2-(2-(dimethylamino)-2-oxoactyl)phenylamino)pyrimidin-2-ylamino)-4-methoxyphenyl)acrylamide], in data set [1], the “Activity (control) % EGFR (T790M) (h)” value is 50%. Besides, the pIC50 in [2] is 7.70; in [4], 6.56; in data set [5], 5.80; in [7], 7.72; in [10], 7.70; in [12] it was 6.30. In addition, the pIC50 was 6.96 in data set [13], 7.81 in data set [14] (setting [20]) and 7.76 in [15]. Besides, the GI50 in data set [2] is 20 nM; in data set [5], greater than 1500 nM; in data set [10] it was 20 nM. The “activity against both activated and resistant T790M forms of EGFR in vitro cellular assays” value in data set [3] is reported as “potent activity”. Further, the “Activity (control) % EGFR (T790M, L858R) (h)” value in [6] is 9%. Besides, the “Activity (control) % EGFR (L858R) (h)” value in [8] was 85%. Moreover, the “Activity (control) % EGFR (h)” value in data set [9] is on record as 105%. In addition, in data set [11], the “Activity (control) % ALK (h)” value was 13%.

Regarding `COc1cc(Nc2ncc(Cl)c(Nc3ccccc3C(=O)C(=O)N(C)C)n2)ccc1N1CCC(N(C)C)CC1` [Example 118, 2-(2-(5-chloro-2-(4-(4-(dimethylamino)piperidin-1-yl)-3-methoxyphenylamino)pyrimidin-4-ylamino)phenyl)-N,N-dimethyl-2-oxoacetamide], the “Activity (control) % EGFR (T790M) (h)” value in data set [1] is 18%. Moreover, the pIC50 in [2] was 7.70; in data set [4], 7.11; in [5], 5.72; in data set [7], 8.31; in data set [10], 8.00; in data set [12] it was 6.80. Further, the pIC50 in data set [13] is 8.00; in data set [14] (setting [20]), 8.29; in data set [15] it was 7.97. Besides, the GI50 in data set [2] is 20 nM; in [5] it was greater than 1500 nM; in data set [10], 10 nM. Moreover, the “activity against both activated and resistant T790M forms of EGFR in vitro cellular assays” value in [3] is on record as “potent activity”. Further, the “Activity (control) % EGFR (T790M, L858R) (h)” value in data set [6] was 2%. Further, the “Activity (control) % EGFR (L858R) (h)” value in data set [8] is given as 29%. Moreover, the “Activity (control) % EGFR (h)” value in data set [9] came to 82%. Moreover, the “Activity (control) % ALK (h)” value in data set [11] came to 3%.

As a reminder, the Cmax is the peak of the concentration-time curve. In the case of `CCOc1cc2ncc(C#N)c(Nc3ccc(OCc4ccccn4)c(Cl)c3)c2cc1NC(=O)/C=C/CN(C)C` [HKI-272], in data set [16], the pIC50 is 6.10 to 6.70. Also, in data set [17], the maximum concentration (Cmax) was roughly 200 nM.

Regarding `C#Cc1cccc(Nc2ncnc3cc4c(cc23)OCCOCCOCCO4)c1` [Icotinib, reference compound], the pIC50 in data set [4] was 8.91; in data set [7] it was less than 6.00; in [12], 8.69; in data set [14] (read-out: IC50, resistant mutant EGFR L858R/T790M), no more than 7.78; in data set [14] (setting [20]), less than 6.00.

As for `C#Cc1cccc(Nc2ncnc3cc(OCCOC)c(OCCOC)cc23)c1` [erlotinib], the radiographic response rates in data set [18] is given as 60-82%. In addition, in data set [19], the “likelihood of tumor shrinkage (response rate)” value is given as 8-10% and the “median time to tumor progression” value is “approximately 2 months”.
